Results on two compounds are retold here after ChEMBL document CHEMBL5647694, “Novel orally bioavailable EZH1/2 dual inhibitors with greater antitumor efficacy than an EZH2 selective inhibitor” (Cancer Sci, 2017).

The target in assay [1] is Cyclin-dependent kinase 5/CDK5 activator 1 (Homo sapiens) (UniProt Q00535+Q15078). Kind of assay: Inhibition of N-terminal GST-tagged full length human CDK5 (1 to 292 residues)/N-terminal GST-tagged human p25 (99 to 307 residues) expressed in baculovirus-infected Sf21 cells using Modified Histone H1 as substrate at 1 uM in presence of ATP by Mobility shift assay.
Assay [2] deals with PI3-kinase p110-alpha/p85-alpha (Homo sapiens) (UniProt P27986+P42336). The assay can be described thus: Inhibition of N-terminal DYKDDDDK tagged, biotinylated full length human PIK3CA (1 to 1068 residues)/human PIK3R1 (1 to 724 residues) expressed in baculovirus expression system using PI(4,5)P2 as substrate at 1 uM in presence of ATP by ADP-Glo assay. (ADP-Glo first removes unused ATP, then detects ADP through luciferase.)

Assay [3] deals with Serine/threonine-protein kinase PAK 1 (Homo sapiens) (UniProt Q13153). Kind of assay: Inhibition of N-terminal GST-fused full length human PAK1 (1 to 545 residues) expressed in baculovirus expression system using LIMKtide as substrate at 1 uM in presence of ATP by Mobility shift assay.
Assay [4] has as its target Serine/threonine-protein kinase MRCK beta (Homo sapiens) (UniProt Q9Y5S2). Kind of assay: Inhibition of N-terminal GST-fused truncated human MRCKbeta (1 to 473 residues) expressed in baculovirus expression system using DAPK1tide as substrate at 1 uM in presence of ATP by Mobility shift assay.
For assay [5], the target named is Serine/threonine-protein kinase Sgk1 (Homo sapiens) (UniProt O00141). The assay can be described thus: Inhibition of N-terminal GST-tagged truncated human SGK (61 to 431 residues) expressed in baculovirus expression system using SGKtide as substrate at 1 uM in presence of ATP by Mobility shift assay.
The target in assay [6] is Serine/threonine-protein kinase Nek7 (Homo sapiens) (UniProt Q8TDX7). Kind of assay: Inhibition of N-terminal GST-fused full length human NEK7 (1 to 302 residues) expressed in baculovirus expression system using CDK7 peptide as substrate at 1 uM in presence of ATP by Mobility shift assay.
The target of assay [7] is Protein kinase C theta type (Homo sapiens) (UniProt Q04759). Kind of assay: Inhibition of N-terminal GST-fused human full length PKC-theta (1 to 706 residues ) expressed in baculovirus expression system using PKC peptide as substrate at 1 uM in presence of ATP by Mobility shift assay.
Assay [8] addresses Tyrosine-protein kinase Yes (Homo sapiens) (UniProt P07947). Kind of assay: Inhibition of N-terminal GST-tagged full length human YES (1 to 543 residues) expressed in baculovirus-infected Sf21 cells using Srctide as substrate at 1 uM in presence of ATP by Mobility shift assay.
Assay [9] deals with Tyrosine-protein kinase CSK (Homo sapiens) (UniProt P41240). Kind of assay: Inhibition of N-terminal GST-fused full length human CSK (1 to 450 residues) expressed in baculovirus-infected Sf21 cells using Srctide as substrate at 1 uM in presence of ATP by Mobility shift assay.
Assay [10] addresses Calcium/calmodulin-dependent protein kinase type 1 (Homo sapiens) (UniProt Q14012). The assay can be described thus: Inhibition of N-terminal GST-tagged full length human CAMK1a (1 to 370 residues) expressed in baculovirus-infected Sf21 cells using GS peptide as substrate at 1 uM in presence of ATP by Mobility shift assay.
For assay [11], the target named is Tyrosine-protein kinase Fgr (Homo sapiens) (UniProt P09769). Kind of assay: Inhibition of N-terminal GST-fused full length human FGR (1 to 529 residues) expressed in baculovirus-infected Sf21 cells using Srctide as substrate at 1 uM in presence of ATP by Mobility shift assay.
The target in assay [12] is Mitogen-activated protein kinase kinase kinase kinase 4 (Homo sapiens) (UniProt O95819). The assay can be described thus: Inhibition of N-terminal GST-fused human HGK catalytic domain (1 to 328 residues) expressed in baculovirus expression system using Moesin-derived peptide as substrate at 1 uM in presence of ATP by Mobility shift assay.
Assay [13] deals with Serine/threonine-protein kinase Chk2 (Homo sapiens) (UniProt O96017). The assay can be described thus: Inhibition of N-terminal GST-fused full length human CHK2 (1 to 543 residues) expressed in baculovirus expression system using CHKtide as substrate at 1 uM in presence of ATP by Mobility shift assay.
Assay [14] deals with Ephrin type-A receptor 5 (Homo sapiens) (UniProt P54756). Kind of assay: Inhibition of N-terminal GST-fused human EPHA5 catalytic domain (662 to 948 residues) expressed in baculovirus-infected Sf21 cells using Blk/Lyntide as substrate at 1 uM in presence of ATP by Mobility shift assay.
In assay [15] the target is Ephrin type-A receptor 3 (Homo sapiens) (UniProt P29320). Kind of assay: Inhibition of N-terminal GST-fused human EPHA3 cytoplasmic domain (579 to 983 residues) expressed in baculovirus-infected Sf21 cells using Blk/Lyntide as substrate at 1 uM in presence of ATP by Mobility shift assay.
In assay [16] the target is Tyrosine-protein kinase Lyn (Homo sapiens) (UniProt P07948). Kind of assay: Inhibition of N-terminal GST-tagged full length human LynA(1 to 512 residues ) expressed in baculovirus-infected Sf21 cells using Srctide as substrate at 1 uM in presence of ATP by Mobility shift assay.
Assay [17] concerns the target Serine/threonine-protein kinase TAO2 (Homo sapiens) (UniProt Q9UL54). Kind of assay: Inhibition of N-terminal GST-fused human TAOK2 catalytic domain (1 to 319 residues) expressed in baculovirus expression system using TAOKtide as substrate at 1 uM in presence of ATP by Mobility shift assay.
The target of assay [18] is Tyrosine-protein kinase JAK2 (Homo sapiens) (UniProt O60674). The assay can be described thus: Inhibition of N-terminal His-tagged human JAK2 catalytic domain (826 to 1132 residues) expressed in baculovirus-infected Sf21 cells using Srctide as substrate at 1 uM in presence of ATP by Mobility shift assay.
Assay [19] deals with Serine/threonine-protein kinase pim-3 (Homo sapiens) (UniProt Q86V86). The assay can be described thus: Inhibition of N-terminal GST-tagged full length human PIM3 (1 to 326 residues) expressed in baculovirus expression system using S6K2 peptide as substrate at 1 uM in presence of ATP by Mobility shift assay.
In assay [20] the target is Casein kinase I isoform gamma-2 (Homo sapiens) (UniProt P78368). The assay can be described thus: Inhibition of N-terminal GST-fused full length human CK1gamma2 (1 to 415 residues) expressed in baculovirus expression system using CKtide as substrate at 1 uM in presence of ATP by Mobility shift assay.
For assay [21], the target named is Tyrosine-protein kinase receptor UFO (Homo sapiens) (UniProt P30530). Kind of assay: Inhibition of N-terminal GST-fused human AXL cytoplasmic domain (464 to 885 residues) expressed in baculovirus-infected Sf21 cells using CSKtide as substrate at 1 uM in presence of ATP by Mobility shift assay.
The target of assay [22] is Cytoplasmic tyrosine-protein kinase BMX (Homo sapiens) (UniProt P51813). Kind of assay: Inhibition of N-terminal GST-fused full length human BMX ( 1 to 675 residues) expressed in baculovirus-infected Sf21 cells using Srctide as substrate at 1 uM in presence of ATP by Mobility shift assay.
In assay [23] the target is Aurora kinase B (Homo sapiens) (UniProt Q96GD4). Kind of assay: Inhibition of human AurB at 1 uM by Mobility shift assay.

Sequence of Mitogen-activated protein kinase kinase kinase kinase 4 (Homo sapiens) (O95819 2-1239 limits assumed): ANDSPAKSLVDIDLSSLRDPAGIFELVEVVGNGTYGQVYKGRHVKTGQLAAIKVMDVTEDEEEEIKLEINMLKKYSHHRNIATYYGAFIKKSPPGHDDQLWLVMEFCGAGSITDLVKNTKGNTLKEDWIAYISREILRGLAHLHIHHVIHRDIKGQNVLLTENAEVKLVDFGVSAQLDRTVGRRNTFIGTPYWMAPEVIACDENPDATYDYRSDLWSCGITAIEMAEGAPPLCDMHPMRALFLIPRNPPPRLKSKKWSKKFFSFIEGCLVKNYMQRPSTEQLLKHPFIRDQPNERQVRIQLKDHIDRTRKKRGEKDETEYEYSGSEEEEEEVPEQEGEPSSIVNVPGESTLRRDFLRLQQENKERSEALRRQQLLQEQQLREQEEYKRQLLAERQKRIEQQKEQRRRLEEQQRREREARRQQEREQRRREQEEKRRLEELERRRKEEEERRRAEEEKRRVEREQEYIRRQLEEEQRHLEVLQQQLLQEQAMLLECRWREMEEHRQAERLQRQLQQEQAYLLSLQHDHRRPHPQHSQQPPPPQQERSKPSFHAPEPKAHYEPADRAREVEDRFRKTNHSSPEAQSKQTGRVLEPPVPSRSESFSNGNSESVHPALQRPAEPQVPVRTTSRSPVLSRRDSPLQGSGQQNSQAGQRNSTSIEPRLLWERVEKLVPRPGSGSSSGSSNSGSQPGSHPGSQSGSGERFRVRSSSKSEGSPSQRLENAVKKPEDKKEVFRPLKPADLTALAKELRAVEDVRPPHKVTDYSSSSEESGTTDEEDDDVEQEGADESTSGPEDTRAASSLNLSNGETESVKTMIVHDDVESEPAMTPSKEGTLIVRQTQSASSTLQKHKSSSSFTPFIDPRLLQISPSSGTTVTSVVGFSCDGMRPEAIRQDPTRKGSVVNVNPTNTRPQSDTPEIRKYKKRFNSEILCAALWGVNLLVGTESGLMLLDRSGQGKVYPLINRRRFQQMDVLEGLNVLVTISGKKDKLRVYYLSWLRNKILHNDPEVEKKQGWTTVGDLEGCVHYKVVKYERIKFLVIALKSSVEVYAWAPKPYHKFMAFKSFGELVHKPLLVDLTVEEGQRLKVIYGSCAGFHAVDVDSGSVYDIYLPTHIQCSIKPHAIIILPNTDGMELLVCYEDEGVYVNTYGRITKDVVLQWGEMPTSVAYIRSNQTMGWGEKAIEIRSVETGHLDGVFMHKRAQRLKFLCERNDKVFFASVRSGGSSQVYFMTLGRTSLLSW
Sequence of Ephrin type-A receptor 5 (Homo sapiens) (P54756 whole entry, the tested form may be a part): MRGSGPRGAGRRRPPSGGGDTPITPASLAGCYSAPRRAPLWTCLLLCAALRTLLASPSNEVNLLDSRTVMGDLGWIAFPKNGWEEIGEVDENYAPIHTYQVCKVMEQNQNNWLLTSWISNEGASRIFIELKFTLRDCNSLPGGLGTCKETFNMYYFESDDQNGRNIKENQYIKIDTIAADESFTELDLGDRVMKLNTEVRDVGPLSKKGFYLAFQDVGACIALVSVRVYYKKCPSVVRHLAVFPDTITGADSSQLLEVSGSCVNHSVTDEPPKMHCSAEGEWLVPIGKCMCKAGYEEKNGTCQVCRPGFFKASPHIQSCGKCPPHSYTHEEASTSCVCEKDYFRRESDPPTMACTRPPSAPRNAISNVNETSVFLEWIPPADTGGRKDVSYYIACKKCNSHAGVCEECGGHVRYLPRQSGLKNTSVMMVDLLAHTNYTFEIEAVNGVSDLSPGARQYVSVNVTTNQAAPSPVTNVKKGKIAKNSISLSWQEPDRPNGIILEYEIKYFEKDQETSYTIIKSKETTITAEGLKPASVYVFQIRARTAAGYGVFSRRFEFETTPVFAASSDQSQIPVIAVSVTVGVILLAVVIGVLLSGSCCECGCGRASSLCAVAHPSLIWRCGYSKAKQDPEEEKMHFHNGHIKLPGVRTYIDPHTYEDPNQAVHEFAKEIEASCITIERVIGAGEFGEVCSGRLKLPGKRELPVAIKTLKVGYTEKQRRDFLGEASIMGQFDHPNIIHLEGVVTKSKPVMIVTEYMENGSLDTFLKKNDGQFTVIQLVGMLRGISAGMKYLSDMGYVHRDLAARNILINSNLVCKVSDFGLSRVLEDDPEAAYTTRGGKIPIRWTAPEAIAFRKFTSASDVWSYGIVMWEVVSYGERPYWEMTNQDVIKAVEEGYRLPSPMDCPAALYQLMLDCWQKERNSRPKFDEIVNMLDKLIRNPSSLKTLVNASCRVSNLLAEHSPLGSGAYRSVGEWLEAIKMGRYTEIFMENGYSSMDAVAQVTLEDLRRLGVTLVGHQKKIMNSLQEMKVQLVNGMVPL
Sequence of Serine/threonine-protein kinase Nek7 (Homo sapiens) (Q8TDX7 whole entry, looked up, the tested form may be a part): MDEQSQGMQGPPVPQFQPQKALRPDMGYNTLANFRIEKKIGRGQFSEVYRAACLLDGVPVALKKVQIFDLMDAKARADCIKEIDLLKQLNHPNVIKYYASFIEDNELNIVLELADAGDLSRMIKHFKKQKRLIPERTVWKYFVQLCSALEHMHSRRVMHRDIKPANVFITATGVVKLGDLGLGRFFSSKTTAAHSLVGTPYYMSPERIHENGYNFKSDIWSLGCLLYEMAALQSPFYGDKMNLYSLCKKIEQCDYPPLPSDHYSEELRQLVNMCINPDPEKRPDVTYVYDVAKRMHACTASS
Sequence of Serine/threonine-protein kinase Chk2 (Homo sapiens) (O96017 whole entry, the tested form may be a part): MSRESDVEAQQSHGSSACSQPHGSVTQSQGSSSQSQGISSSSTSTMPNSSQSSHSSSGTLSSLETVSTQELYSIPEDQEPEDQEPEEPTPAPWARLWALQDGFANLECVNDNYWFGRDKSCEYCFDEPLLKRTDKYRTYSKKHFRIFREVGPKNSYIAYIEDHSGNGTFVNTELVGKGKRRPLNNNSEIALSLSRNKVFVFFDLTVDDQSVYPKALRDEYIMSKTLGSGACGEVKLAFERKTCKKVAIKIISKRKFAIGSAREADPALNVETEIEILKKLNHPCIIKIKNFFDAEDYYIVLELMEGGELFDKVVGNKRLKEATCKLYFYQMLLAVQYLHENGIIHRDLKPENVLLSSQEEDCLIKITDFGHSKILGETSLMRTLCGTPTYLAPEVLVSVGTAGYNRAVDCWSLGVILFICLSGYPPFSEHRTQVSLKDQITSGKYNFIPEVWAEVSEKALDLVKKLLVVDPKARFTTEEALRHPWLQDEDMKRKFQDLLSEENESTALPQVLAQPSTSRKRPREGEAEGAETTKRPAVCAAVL
Sequence of Serine/threonine-protein kinase PAK 1 (Homo sapiens) (Q13153 whole entry, the tested form may be a part): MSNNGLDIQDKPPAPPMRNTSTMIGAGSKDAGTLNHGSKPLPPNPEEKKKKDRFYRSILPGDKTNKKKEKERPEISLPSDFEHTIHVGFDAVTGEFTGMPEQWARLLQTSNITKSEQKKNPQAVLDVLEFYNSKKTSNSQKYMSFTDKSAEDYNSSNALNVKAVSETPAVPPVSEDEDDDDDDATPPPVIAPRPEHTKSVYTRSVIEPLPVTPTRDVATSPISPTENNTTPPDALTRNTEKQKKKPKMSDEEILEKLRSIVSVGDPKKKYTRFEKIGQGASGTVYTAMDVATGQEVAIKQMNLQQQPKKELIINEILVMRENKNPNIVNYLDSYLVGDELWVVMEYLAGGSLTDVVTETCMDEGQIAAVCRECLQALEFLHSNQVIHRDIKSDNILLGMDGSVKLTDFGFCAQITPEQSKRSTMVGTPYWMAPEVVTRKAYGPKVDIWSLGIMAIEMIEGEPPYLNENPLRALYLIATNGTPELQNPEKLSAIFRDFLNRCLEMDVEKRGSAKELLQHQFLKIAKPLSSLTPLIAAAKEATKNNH
Sequence of Ephrin type-A receptor 3 (Homo sapiens) (P29320 whole entry, the tested form may be a part): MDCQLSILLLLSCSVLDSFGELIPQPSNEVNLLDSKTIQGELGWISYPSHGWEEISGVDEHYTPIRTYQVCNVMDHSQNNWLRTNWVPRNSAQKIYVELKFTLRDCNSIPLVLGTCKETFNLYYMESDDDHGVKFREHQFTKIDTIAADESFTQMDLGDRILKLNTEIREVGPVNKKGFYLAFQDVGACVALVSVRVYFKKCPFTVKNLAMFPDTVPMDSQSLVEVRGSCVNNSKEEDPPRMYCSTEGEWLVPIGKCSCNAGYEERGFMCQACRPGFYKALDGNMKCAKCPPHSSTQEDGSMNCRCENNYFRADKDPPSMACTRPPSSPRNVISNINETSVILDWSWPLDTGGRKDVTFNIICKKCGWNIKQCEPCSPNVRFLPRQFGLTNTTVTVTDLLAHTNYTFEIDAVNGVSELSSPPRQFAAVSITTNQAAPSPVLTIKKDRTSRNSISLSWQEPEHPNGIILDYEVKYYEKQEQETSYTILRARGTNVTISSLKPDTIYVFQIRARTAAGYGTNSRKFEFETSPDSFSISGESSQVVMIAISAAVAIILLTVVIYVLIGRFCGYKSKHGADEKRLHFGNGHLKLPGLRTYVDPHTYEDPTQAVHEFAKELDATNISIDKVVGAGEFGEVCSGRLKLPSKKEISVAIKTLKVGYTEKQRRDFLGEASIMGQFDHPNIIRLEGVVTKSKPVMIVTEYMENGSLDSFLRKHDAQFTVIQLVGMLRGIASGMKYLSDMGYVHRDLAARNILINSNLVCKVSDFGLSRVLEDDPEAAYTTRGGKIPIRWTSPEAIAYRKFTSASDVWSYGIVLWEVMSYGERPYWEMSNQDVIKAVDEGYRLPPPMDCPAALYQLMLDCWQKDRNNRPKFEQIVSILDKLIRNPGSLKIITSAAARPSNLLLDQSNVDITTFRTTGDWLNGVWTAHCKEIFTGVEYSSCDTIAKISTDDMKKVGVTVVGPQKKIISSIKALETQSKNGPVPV

For orientation: inhibition means the relative decrease from the control value, in per cent. For the compound `Cc1cc(C)c(CNC(=O)c2cc(Br)c3c(c2C)O[C@@](C)([C@H]2CC[C@H](N(C)C)CC2)O3)c(=O)[nH]1`, the inhibition is 5.9% in assay [1]; 9.8% in assay [2]; 2.3% in assay [3]; -1% in assay [4]; -3% in assay [5]; 2.8% in assay [6]. The inhibition in assay [7] was 6.6%; in [8], -1.6%; in [9], -0.5%; in assay [10], 0.2%; in assay [11] it was -4.6%; in assay [12], -0.2%. The inhibition in assay [13] was 0.7%; in assay [14], -6.3%; in assay [15], -8.6%; in assay [16], -3.7%; in [17] it was -2.8%; in assay [18] it was -4.4%. The inhibition was 5.7% in assay [19]; -2.8% in assay [20]; -0.5% in assay [21]; -2.2% in [22]; -3.7% in assay [23].

Regarding `Cc1cc(C)c(CNC(=O)c2cc(Cl)c3c(c2C)O[C@@](C)([C@H]2CC[C@H](N(C)C)CC2)O3)c(=O)[nH]1` [VALEMETOSTAT], the inhibition in assay [1] is -2.4%; in [2], 0.6%; in [3], 2.6%; in assay [4] it was -1.3%; in assay [5], -4.2%; in assay [6] it was 1.6%. Moreover, the inhibition in assay [7] is -0.6%; in assay [8], -1.8%; in [9], -5.9%; in assay [10], -2.8%; in assay [11], -6.5%; in [12], 0.4%. Besides, the inhibition in [13] was -2.2%; in assay [14], -3.4%; in [15], -4.8%; in assay [16] it was -3.7%; in assay [17] it was -0.5%; in assay [18], -4.5%. Also, the inhibition was 5.9% in assay [19]; -5.8% in [20]; -3.5% in [21]; -3.1% in [22]; -1% in [23].
